# What was measured:
# Plasma = experiment: Fraction unbound in human plasma; format: ADME, cell-free
# Cytochrome P450 2C9 = Cytochrome P450 2C9 (Homo sapiens, UniProt P11712); experiment: Inhibition of CYP2C9 (unknown origin); format: ADME
# Cytochrome P450 2C19 = Cytochrome P450 2C19 (Homo sapiens, UniProt P33261); experiment: Inhibition of CYP2C19 (unknown origin); format: ADME
# Glucocorticoid receptor = biological target: T1, Glucocorticoid receptor (Rattus norvegicus, UniProt P06536); experiment: Agonist activity at glucocorticoid receptor in rat PBMC assessed as inhibition of LPS-stimulated TNF-alpha release
# T1 sequence (P06536 whole entry): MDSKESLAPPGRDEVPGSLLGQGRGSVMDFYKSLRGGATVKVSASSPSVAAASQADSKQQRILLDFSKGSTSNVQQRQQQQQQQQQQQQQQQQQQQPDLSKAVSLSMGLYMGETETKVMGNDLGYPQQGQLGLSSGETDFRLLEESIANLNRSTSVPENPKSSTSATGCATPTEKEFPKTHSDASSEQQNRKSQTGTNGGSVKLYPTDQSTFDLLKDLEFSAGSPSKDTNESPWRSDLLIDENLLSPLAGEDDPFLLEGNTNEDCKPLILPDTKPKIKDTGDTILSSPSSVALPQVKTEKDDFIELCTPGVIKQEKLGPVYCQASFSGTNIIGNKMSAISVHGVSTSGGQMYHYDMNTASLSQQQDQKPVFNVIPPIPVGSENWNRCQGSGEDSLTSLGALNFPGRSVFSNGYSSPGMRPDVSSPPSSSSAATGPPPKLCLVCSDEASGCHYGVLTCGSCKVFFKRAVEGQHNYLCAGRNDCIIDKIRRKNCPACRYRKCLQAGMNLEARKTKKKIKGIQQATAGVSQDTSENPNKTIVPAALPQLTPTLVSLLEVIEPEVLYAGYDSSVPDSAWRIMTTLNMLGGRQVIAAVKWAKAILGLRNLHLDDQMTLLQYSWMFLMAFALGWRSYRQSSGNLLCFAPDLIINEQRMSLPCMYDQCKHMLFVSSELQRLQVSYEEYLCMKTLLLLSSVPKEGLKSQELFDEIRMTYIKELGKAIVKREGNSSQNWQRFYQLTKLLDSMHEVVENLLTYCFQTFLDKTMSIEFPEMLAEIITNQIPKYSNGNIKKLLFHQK
# Cytochrome P450 2C9, sequence (P11712 whole entry): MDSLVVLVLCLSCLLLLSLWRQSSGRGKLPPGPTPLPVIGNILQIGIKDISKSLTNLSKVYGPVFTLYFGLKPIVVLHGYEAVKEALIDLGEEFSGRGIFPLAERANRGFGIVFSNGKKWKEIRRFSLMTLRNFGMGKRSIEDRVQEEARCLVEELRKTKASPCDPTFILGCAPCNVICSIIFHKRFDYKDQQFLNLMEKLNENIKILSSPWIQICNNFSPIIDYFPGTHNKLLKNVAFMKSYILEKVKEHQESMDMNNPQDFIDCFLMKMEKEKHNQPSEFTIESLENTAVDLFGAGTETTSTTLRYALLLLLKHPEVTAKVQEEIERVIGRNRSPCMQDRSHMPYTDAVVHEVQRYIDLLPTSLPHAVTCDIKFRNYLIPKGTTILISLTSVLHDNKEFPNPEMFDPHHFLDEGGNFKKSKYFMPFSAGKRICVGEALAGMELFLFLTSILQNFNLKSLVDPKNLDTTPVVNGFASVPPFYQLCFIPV
# Cytochrome P450 2C19, sequence (P33261 whole entry): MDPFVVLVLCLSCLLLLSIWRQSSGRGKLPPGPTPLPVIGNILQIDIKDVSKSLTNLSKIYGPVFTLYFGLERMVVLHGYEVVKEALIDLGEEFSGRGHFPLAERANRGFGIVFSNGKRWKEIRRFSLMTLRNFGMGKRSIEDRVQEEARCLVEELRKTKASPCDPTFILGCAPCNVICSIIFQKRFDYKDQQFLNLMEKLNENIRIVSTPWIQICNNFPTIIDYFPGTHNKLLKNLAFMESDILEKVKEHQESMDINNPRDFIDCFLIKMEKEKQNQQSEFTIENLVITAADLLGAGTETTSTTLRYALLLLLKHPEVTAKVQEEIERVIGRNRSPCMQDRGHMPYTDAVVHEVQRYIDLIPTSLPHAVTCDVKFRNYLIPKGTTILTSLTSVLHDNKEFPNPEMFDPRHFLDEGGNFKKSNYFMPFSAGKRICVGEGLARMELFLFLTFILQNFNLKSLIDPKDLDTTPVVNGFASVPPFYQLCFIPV
structure (smiles),measurement,setting,value
Cc1nn(C2CCCC2)c(C)c1S(=O)(=O)N[C@@H](C)CNc1cccc2c1cnn2-c1ccc(F)nc1,Fu,Plasma,0.005%
same,IC50,Cytochrome P450 2C9,17 µM
same,IC50,Cytochrome P450 2C19,> 20 µM
same,IC50,Glucocorticoid receptor,4.5 nM
